Earlier results, collected in patent US5565431A, “Cancer cell inhibitors and method” (priority 1994, dated 1996).

Experiments:
[1] = test system: normal colonic mucosa cells; conditions: Garcia et al. (9)
[2] = test system: seven colon cancer cell lines; conditions: Garcia et al. (9)

Structure (SMILES): CO[C@H]1[C@@H](OC)C[C@H](C)[C@@H](OC)C2=CC(=O)C=C(NC(=O)/C(C)=C/C=C\[C@H](OC)[C@@H](OC(N)=O)/C(C)=C/[C@@H]1C)C2=O [herbimycin A]
- Inhibition of normal colonic mucosa cells [1]: 12%
- Inhibition of seven colon cancer cell lines [2]: greater than 40%
